Assay results reported in US20240156982A1, “METHOD OF FORMING PEPTIDE-COATED NANOPARTICLES” (Research Foundation of the City University of New York, priority 2022, published 2024).

Assays:
[1] = cited from earlier work
OV-90 = experiment: MTT viability assay; assay type: cell-based
Protocol: (§1) FIG. 8 depicts a series of graphs showing in vitro viability with RGDFFF (SEQ ID NO: 1)-CA4 NP. Each column represents the mean and standard deviation of N=3 and p<0.005 (HUVEC, OVCAR-3), p<0.04 (TOV-21G, OV-90), p<0.03 (CP70), p<0.02 (A2780), p<0.01 (ES-2), p<0.12 (SKOV-3).
(§2) The biological activity of RGDFFF (SEQ ID NO: 1)-CA4 NPs in cell culture was also evaluated. As determined by HPLC, the CA4 drug payload in the NP was 0.2 wt. %. First, IC50 values were established for the NPs in all cells and subsequently performed MTT viability assays in HUVEC and OvCA cells using the respective IC50 values. The RGDFFF-CA4 NPs were compared to cells only without treatment, free CA4, and empty RGDFFF (SEQ ID NO: 1)-NPs without CA4, as shown in FIG. 8. […] Optical microscopy was used to examine the morphological changes in the cells after incubation with RGDFFF (SEQ ID NO: 1)-CA4 NP. This was done since CA4 is a microtubule depolymerizing agent that disrupts internal cell architecture.

CP70 = experiment: MTT viability assay; assay type: cell-based
Protocol: as §1, §2

SKOV-3 = experiment: MTT viability assay; assay type: cell-based
Protocol: as §1, §2

ES-2 = experiment: MTT viability assay; assay type: cell-based
Protocol: as §1, §2

TOV-21G = experiment: MTT viability assay; assay type: cell-based
Protocol: as §1, §2

OVCAR-3 = experiment: MTT viability assay; assay type: cell-based
Protocol: as §1, §2

A2780 = experiment: MTT viability assay; assay type: cell-based
Protocol: as §1, §2

HUVEC = experiment: MTT viability assay; assay type: cell-based, human
Protocol: as §1, §2

COc1ccc(/C=C\c2cc(OC)c(OC)c(OC)c2)cc1O [CA4, combretastatin A4]
solubility in water [1]: not soluble in water
IC50 (OV-90): 100 nM
IC50 (CP70): 4 nM
IC50 (SKOV-3): 10 nM
IC50 (ES-2): 5 nM
IC50 (TOV-21G): 25 nM
IC50 (OVCAR-3): 2.5 nM
IC50 (A2780): 5 nM
IC50 (HUVEC): 2 nM
